Experimental data taken from US10011571B2, “Preparation method for aromatic heterocyclic compound used as selective JAK3 and/or JAK1 kinase inhibitor and application of aromatic heterocyclic compound” (SHENZHEN CHIPSCREEN BIOSCIENCES, LTD., priority 2014, dated 2018).

Columns and labels:
[1] = target: JAK1 (Homo sapiens (Human), UniProt P23458); test: Z'-LYTE enzymatic activity detection, JAK1; format: biochemical; conditions: test compound 300 nM; for inhibition at 0.3 µM: read-out: JAK1 % inhibitory rate @300 nM
Sequence of JAK1 (P23458 whole entry): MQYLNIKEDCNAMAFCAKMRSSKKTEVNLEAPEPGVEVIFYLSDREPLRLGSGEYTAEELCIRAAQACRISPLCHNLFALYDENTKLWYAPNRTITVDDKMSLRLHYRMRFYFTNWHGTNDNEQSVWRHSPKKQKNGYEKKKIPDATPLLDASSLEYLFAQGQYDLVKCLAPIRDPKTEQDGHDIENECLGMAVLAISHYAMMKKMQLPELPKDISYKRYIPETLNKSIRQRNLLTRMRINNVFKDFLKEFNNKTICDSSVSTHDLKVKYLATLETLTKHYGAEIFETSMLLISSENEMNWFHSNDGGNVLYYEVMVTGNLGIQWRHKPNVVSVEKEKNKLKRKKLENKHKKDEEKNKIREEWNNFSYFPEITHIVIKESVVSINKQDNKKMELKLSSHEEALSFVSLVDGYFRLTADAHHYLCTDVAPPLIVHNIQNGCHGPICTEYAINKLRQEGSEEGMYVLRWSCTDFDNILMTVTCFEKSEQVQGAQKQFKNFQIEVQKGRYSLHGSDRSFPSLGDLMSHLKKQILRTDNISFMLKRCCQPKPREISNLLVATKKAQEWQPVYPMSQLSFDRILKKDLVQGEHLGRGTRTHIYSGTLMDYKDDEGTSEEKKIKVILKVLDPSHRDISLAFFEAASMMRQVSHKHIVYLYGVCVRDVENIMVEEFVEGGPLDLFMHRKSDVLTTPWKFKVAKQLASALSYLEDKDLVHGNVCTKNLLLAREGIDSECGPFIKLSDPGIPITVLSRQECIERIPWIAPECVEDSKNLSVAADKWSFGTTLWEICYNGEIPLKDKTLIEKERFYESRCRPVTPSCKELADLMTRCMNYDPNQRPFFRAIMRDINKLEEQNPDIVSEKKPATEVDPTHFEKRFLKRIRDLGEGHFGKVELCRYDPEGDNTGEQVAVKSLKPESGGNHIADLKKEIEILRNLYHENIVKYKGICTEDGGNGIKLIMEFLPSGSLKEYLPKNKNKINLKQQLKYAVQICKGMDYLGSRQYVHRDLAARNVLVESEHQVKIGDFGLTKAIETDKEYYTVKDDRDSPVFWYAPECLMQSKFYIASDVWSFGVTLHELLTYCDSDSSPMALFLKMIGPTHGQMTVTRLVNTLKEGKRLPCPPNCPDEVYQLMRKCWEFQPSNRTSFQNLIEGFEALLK
Procedure: (§1) The basic principle of in vitro enzymatic activity assay is based on the difference between the intensities of fluorescence signals generated at different wavelengths (445 nm and 520 nm) from the phosphorylated substrate and non-phosphorylated substrate, in which the specific fluorescence-labeled substrate is phosphorylated by the kinase. When different test compounds are added, the inhibition of kinase activity is represented as the different degrees of substrate phosphorylation, and thus as the different intensities of fluorescence signal, based on which the inhibitory activity of the compound on the kinase can be calculated. Basic detection principle is illustrated in FIG. 1.
(§2) In an enzymatic inhibitory activity detection, GST-labeled human recombinant JAK kinases, including JAK1/PV4774, JAK2/PV4210, JAK3/PV3855, TYK2/PV4790 and their corresponding specific substrates, including Tyr6 (Z′-LYTE® Kinase Assay Kit-Tyrosine 6 Peptide, JAK1/PV4122), Tyr4 (Z′-LYTE® Kinase Assay Kit-Tyrosine 4 Peptide, JAK2/PV3193), Tyr4 (Z′-LYTE® Kinase Assay Kit-Tyrosine 4 Peptide, JAK3/PV3193), Tyr3 (Z′-LYTE® Kinase Assay Kit-[…], TYK2/PV3192) are used. In all tests, development reagent A (PV3297) was used as the test agent. All materials mentioned above were purchased from Invitrogen.
(§3) (1) Preparation: kinase reaction buffer (working solution) is prepared according to the instruction; a concentration gradient of the test compound is prepared by dilution using the kinase reaction buffer (the highest compound concentration is 10 μM for JAK1, JAK2, and TYK2 detection, and 1 μM for JAK3 detection, respectively).
(§4) (2) 10 μl of reaction system, comprising 2.5 μL test compound, 5 μL kinase reaction buffer and 2.5 μL ATP solution (provided by the kit), is mixed and reaction is performed at room temperature for 1 h.
(§5) (3) Controls, including a solvent control without the test compound, a negative control without ATP and a positive control with the phosphorylated substrate, are tested together with the detection. All tests are carried out in triplicate.
(§6) (4) After the enzymatic reaction, 5 μL pre-formulated development buffer is added, and reaction is performed at room temperature for 1 h. Subsequently, the reaction is terminated by adding 5 μL stop buffer.
(§7) (5) The fluorescence signal in each well is detected by an Ascent Fluoroskan FL reader (Thermo Labsystems) at an excitation wavelength of 400 nm, and emission wavelengths of 445 nm and 520 nm. The proportion of substrate phosphorylation is obtained by reference to the fluorescence signal intensity C445/F520.
(§8) (6) The enzymatic inhibitory rate of the test compound can be calculated based on the following equation: Inhibitory rate (%)=1−the proportion of substrate phosphorylation in the detection well/the proportion of substrate phosphorylation in the solvent control well. The half-inhibitory concentration (IC50) can be calculated using an IC50 calculator based on the inhibitory rates of phosphorylation for the test compounds at different concentration gradients.
(§9) Based on the above method, the compounds described herein are enzymatically evaluated in vitro for JAKs (the concentration of the test compound is 30 nM for JAK3 and JAK2 test, and 300 nM for JAK1 test) using Xeljanz (tofacitinib citrate) as the positive control.

[2] = system: CTLL-2 cells; test: Cell growth activity assay (MTS), CTLL-2 cell model; format: cell-based, mouse; conditions: 24 h; for activity at 0.3 µM: Mus musculus, CTLL-2, 300 nM, read-out: CTLL-2 % growth rate @300 nM
Description: (§10) MTS assay is a routine method for cell toxicity detection. The basic principle is based on the capacity of dehydrogenase in the mitochondria of living cells to reduce a novel yellow […] MTS to formazan, so that the amount of living cells is proportional to the amount of formazan product by detecting the absorbance at 490 nm (OD), thereby speculating the amount of living cells according to the OD value, and understanding the capacity of the test compound to inhibit the growth of cells or to kill the cells.
In this experiment, mouse T-cell line CTLL-2 was used. The proliferation and growth of this cell line strongly depend on IL-2, and it is commonly used to evaluate the active titer of exogenous IL-2. By inhibiting the activity of kinase JAK1/3, the proliferation of CTLL-2 can be inhibited under in vitro culture. The activation and proliferation of T-cell is also important pathological characteristics for various immunological diseases. Thus, this model is also pathologically related.
By comparing the change of absorbance generated by the cells treated by the test compounds using MTS assay, the growth inhibitory activity of the test compounds on the model cells can be realized, and thereby potential inhibitory activity of the compounds on JAK1/3 pathway can be evaluated.
(§11) MTS is performed according to routine procedure in a 96-well plate.
(§12) The model cells are inoculated into each well of the 96-well plate at an appropriate concentration (about 20,000 cells/well). After 24 h, the test compounds are added at different concentration gradients (the highest concentration of 10 μM). A solvent control (DMSO) and a negative control are also performed at the same time. Each experiment is repeated for 3 times. The cells are detected after cultured for another 24 h.
CTLL-2 is a suspended cell. After incubation, 20 μL pre-formulated mixture of MTS and PMS (in a ratio of 20:1) is directly added to each well. After incubation at 37° C. for 2 h, it is then detected by a microplate reader (490 nm).
The effect of the test compound on cell growth is calculated by comparing the change of OD values between the test well and the solvent control well, after subtracting the background of the negative control. For the test compounds at different concentration gradients, the inhibitory rates on the growth of model cells and their half-growth inhibitory concentrations (GI50) are each calculated.
Based on the above method, cytological evaluation is performed to the compounds described herein (for the detection of CTLL-2 cell, the concentration of the test compound is 300 nM; for the detection of HeLa and HUVEC cell, the concentration of the test compound is […]).

[3] = system: HeLa cells; test: Cell growth activity assay (MTS), HeLa cell model; format: cell-based, human; parameters: activity: dose or concentration left out as unconfirmed; conditions: 72 h; for activity: Homo sapiens, HeLa, read-out: HeLa % growth rate
Description: as §10
HeLa cell is a human cervical cancer cell line, and belongs to epithelial tumor cell line; HUVEC is a human umbilical vein endothelial cell, and belongs to primary endothelial cell; both types of cells express all subtypes except for JAK3.
The change of JAK kinase activity has no significant influence on other cell types except for the immune cells, and both cell models mentioned above are mainly used to evaluate whether there are any other kinase targets besides JAK kinases or there are nonselective cell toxicities.
In this experiment, a cultured cell model is incubated with the test compounds at different concentrations for a specific duration. The effect of the treatment by the test compound on the growth of cells is detected using MTS assay.
as §11
as §12, with “(about 5000” for “(about 20,000”, “highest final” for “highest”, “concentration is 40” for “concentration of 10”, “another 72” for “another 24”
After all culture medium is aspirated out of the well, 100 μL fresh medium and 20 μL pre-formulated mixture of MTS and PMS (in a ratio of 20:1) are added to each well. After incubation at 37° C. for 2 h, it is then detected by a microplate reader (490 nm).
The cell growth inhibitory rate and GI50 of the test compound are calculated as above.
Based on the above method, cytological evaluation is performed to the compounds described herein (for the detection of CTLL-2 cell, the concentration of the test compound is 300 nM; […]).

[4] = target: JAK2 (Homo sapiens (Human), UniProt O60674); test: Z'-LYTE enzymatic activity detection, JAK2; format: biochemical; conditions: test compound 30 nM; for inhibition at 0.03 µM: read-out: JAK2 % inhibitory rate @30 nM
Sequence of JAK2 (O60674 whole entry): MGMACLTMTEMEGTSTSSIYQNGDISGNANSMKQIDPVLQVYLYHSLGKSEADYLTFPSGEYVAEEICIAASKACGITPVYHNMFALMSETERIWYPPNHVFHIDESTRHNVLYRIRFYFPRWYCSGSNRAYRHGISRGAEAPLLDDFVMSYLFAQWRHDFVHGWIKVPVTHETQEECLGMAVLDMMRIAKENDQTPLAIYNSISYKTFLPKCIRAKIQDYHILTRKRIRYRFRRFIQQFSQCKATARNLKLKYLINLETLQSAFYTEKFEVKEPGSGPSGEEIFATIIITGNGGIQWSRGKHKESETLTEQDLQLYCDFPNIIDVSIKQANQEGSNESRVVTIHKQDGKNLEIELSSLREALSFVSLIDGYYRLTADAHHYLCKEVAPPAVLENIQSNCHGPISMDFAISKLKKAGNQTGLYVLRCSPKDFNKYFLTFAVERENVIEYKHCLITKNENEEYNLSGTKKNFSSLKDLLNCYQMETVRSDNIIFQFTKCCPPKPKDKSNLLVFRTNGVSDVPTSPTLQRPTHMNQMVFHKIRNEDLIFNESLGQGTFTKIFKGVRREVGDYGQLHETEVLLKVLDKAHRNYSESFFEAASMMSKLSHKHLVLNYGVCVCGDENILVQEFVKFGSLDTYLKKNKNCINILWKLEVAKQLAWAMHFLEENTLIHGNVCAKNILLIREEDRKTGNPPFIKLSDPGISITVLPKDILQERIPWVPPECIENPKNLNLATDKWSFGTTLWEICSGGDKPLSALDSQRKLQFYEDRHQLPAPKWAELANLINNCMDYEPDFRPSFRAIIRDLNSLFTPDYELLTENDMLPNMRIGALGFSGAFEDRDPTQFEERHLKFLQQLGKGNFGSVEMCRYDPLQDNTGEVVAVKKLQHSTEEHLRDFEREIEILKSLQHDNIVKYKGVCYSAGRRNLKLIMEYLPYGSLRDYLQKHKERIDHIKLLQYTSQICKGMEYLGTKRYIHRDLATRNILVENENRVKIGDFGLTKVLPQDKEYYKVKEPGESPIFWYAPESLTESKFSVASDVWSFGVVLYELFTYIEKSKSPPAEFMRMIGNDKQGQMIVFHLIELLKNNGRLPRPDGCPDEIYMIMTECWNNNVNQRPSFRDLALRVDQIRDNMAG
Procedure: as §1, §2, §3, §4, §5, §6, §7, §8, §9

[5] = target: JAK3 (Homo sapiens (Human), UniProt P52333); test: Z'-LYTE enzymatic activity detection, JAK3; format: biochemical; conditions: test compound 30 nM; for inhibition at 0.03 µM: read-out: JAK3 % inhibitory rate @30 nM
Sequence of JAK3 (P52333 whole entry): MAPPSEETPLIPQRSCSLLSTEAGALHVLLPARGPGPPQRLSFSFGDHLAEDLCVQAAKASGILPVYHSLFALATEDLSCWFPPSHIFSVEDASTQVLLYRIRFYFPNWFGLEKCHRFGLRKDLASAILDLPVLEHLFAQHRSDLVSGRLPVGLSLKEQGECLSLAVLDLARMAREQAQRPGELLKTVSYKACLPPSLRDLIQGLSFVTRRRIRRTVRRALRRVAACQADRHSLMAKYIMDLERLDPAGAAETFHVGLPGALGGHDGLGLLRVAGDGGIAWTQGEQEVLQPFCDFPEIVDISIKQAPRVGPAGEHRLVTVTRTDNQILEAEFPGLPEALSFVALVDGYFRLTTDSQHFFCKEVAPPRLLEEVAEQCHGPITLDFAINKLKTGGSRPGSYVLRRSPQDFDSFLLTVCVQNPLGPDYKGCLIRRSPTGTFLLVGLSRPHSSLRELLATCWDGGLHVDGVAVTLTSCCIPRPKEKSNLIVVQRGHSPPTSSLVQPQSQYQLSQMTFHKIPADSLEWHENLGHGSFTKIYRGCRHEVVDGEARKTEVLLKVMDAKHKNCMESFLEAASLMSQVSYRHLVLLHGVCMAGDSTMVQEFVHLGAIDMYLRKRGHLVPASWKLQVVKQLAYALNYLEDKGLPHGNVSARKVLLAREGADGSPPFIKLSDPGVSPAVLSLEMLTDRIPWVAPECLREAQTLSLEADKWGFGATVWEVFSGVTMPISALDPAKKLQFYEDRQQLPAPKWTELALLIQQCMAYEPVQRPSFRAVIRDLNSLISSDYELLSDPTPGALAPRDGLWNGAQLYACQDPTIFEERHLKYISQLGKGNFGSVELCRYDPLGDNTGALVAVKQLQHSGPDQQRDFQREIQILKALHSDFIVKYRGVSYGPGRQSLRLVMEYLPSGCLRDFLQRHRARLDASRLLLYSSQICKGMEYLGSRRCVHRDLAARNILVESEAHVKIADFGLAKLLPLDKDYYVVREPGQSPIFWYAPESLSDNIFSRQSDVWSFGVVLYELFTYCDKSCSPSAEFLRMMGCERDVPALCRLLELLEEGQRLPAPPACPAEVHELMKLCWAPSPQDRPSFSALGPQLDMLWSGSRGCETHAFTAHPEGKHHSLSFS
Procedure: as §1, §2, §3, §4, §5, §6, §7, §8, §9

| JAK1 RV (ratio between the inhibitory rate of the test compound and that of Xeljanz) [1] | inhibition at 0.3 µM [1] | inhibition at 0.03 µM [4] | JAK3 RV (ratio between the inhibitory rate of the test compound and that of Xeljanz) [5] | inhibition at 0.03 µM [5] | JAK1 % inhibitory rate @300 nM [1] | JAK2 % inhibitory rate @30 nM [4] | JAK3 % inhibitory rate @30 nM [5] | SMILES | activity at 0.3 µM [2] | activity [3] | CTLL-2 % growth rate @300 nM ([2]; 300 nM) | HeLa % growth rate @10 μM [3] |
| --- | --- | --- | --- | --- | --- | --- | --- | --- | --- | --- | --- | --- |
| 0.15 | 15% | 0% | 0.76 | 103% |  |  |  | C=CC(=O)N(C)c1cc(Nc2ncc(Cl)c(NCCCNS(=O)(=O)c3ccc(C#N)cc3)n2)ccc1F [Example 68, 4-cyano-N-(3-(5-chloro-2-(4-fluoro-3-(N-methylacrylamido)phenylamino)pyrimidinyl-4-amino)propyl)benzenesulfonamide] | 69% | 110% |  |  |
| 0.14 | 14% | 0% | 0.90 | 121% |  |  |  | C=CC(=O)N(C)c1cc(Nc2ncc(Cl)c(NCCCNC(=O)c3ccncc3)n2)ccc1F [Example 75, N-(3-(5-chloro-2-(4-fluoro-3-(N-methylacrylamido)phenylamino)pyrimidinyl-4-amino)propyl)isonicotinamide] | 49% | 102% |  |  |
| 0.08 | 14% | 0% | 0.54 | 105% |  |  |  | C=CC(=O)N(C)c1cc(Nc2ncc(Cl)c(NCCCNC(=O)c3ccc(C#N)cc3F)n2)ccc1F [Example 52, N-(3-(5-chloro-2-(4-fluoro-3-(N-methylacrylamido)phenylamino)pyrimidinyl-4-amino)propyl)-4-cyano-2-fluorobenzamide] | 29% | 64% |  |  |
| 0.05 | 9% | 0% | 0.59 | 116% |  |  |  | C=CC(=O)N(C)c1cc(Nc2ncc(Cl)c(NCCCNC(=O)c3ccc(C#N)c(F)c3)n2)ccc1F [Example 56, N-(3-(5-chloro-2-(4-fluoro-3-(N-methylacrylamido)phenylamino)pyrimidinyl-4-amino)propyl)-4-cyano-3-fluorobenzamide] | 30% | 60% |  |  |
| 0.19 | 16% | 0% | 0.99 | 82% |  |  |  | C=CC(=O)N(C)c1cc(Nc2ncc(Cl)c(NCCCNC(=O)c3ccc(C(C)=O)cc3)n2)ccc1F [Example 111, 4-acetyl-N-(3-(5-chloro-2-(4-fluoro-3-(N-methylacrylamido)phenylamino)pyrimidinyl-4-amino)propyl)benzamide] | 3% | 67% |  |  |
|  |  |  | 0.95 |  | 0% | 0% | 79% | C=CC(=O)N(C)c1cc(Nc2ncc(Cl)c(NCCCCCCNC(=O)c3ccc(C#N)cc3)n2)ccc1F [Example 123, N-(6-(5-chloro-2-(4-fluoro-3-(N-methylacrylamido)phenylamino)pyrimidinyl-4-amino)hexyl)-4-cyanobenzamide] |  |  | 5% | 5% |
